Source: patent publication US8552220B2, “Therapeutic agent for Alzheimer's disease” (Tokyo Institute of Technology, priority 2008, dated 2013)

What was measured:
[1] = biological target: T1, recombinant human β-secretase (rhBACE-1) (Homo sapiens, UniProt P56817); test: Measurement of 50% inhibition concentration (IC50) of β-secretase (BACE-1) enzyme, fluorescent substrate peptide; format: biochemical; conditions: rhBACE-1, pH 4.5, 37° C., 2.5 hr
T1 construct: purchased Invitrogen
Method: Compounds were dissolved in 0.1 M sodium acetate buffer (with 150 mM sodium chloride, pH 4.5) and 10% dimethylsulfoxide (DMSO). The solution with no compound was used as a negative control. Then, 15 μL of these solutions (final compound concentration: 0.3, 0.9, 3.0, 9.0, and 30.0 μM), 1 unit/mL of recombinant human β-secretase (rhBACE-1, Invitrogen), and 15 μL of the fluorescent substrate peptide were mixed in a black 384-well microtiter plate (Coaster). After mixtures were incubated in the dark at 37° C. for 2.5 hr, the fluorescence intensities of the mixtures were measured by fluorescence microplate reader (Wallac) at 545 nm for excitation and at 590 nm for emission. The inhibition ratio of each compound was calculated using the intensity of the solution without any compound as a negative control. The sequence of the peptide was Ser-Glu-Val-Asn-Leu-Asp-Ala-Glu-Lys-Arg, and labeled with fluorescent donor (Cy3) at Ser-1 and with quencher (Cy5Q) at Lys-9, respectively (Invitrogen) Inhibitory activities of each compound are shown in FIG. 1.

[2] = system: Aβ-40 and Aβ-42 production; test: Inhibitory effect on Aβ-40 and Aβ-42 production in rat primary cultured cell (Aβ ELISA of culture medium); format: cell-based; conditions: 72 hr, rat cerebral cortex primary culture
Method: Cerebral cortex was obtained from 19-20 day-old embryonic Wistar rat. The tissue was minced, dissociated using scalpel blades and Pasteur pipette in Hunks buffered solution, and centrifuged at 100 rpm. Precipitated cells were filtered using […] cell strainer, and single cells were prepared. These cells were suspended in Eagle's Minimum Essential Medium (EMEM) containing 10% Fetal bovine serum, and plated into 48-well tissue culture plates (Becton Dickinson) at 200 μL/well and 1.7×10^5 cells/cm^2. Cultures were incubated at 37° C. in a humidified atmosphere of 5% CO2. After 3, 5, and 7 days in culture, the medium was replaced, and after 9 days, CU532 was dissolved in DMSO and diluted in culture media so that the final concentration of DMSO in culture media was 0.1%, and each solution was added to each well at […] for 72 hr. The control solution contained 0.1% DMSO.
After 72 hr, Aβ-40 and Aβ-42 in culture media were measured using by Aβ ELISA kit (Wako). 100 μL of the culture medium and standard diluents were added to the antibody-coated plate, and incubated at 4° C. over night. Then the plate was washed by wash buffer 5 times and 100 μL of HRP-labeled detection antibody solution was added to the plate. After 1 hour, the plate was washed 5 times, and TMB chromogenic reagent was added to the plate. After 30 minute, stop solution was added and absorbance at 450 nm of the solution was measured by microplate reader (BIORAD). The concentration of Aβ in culture medium was calculated from the standard curve.

T1 sequence (P56817 46-501): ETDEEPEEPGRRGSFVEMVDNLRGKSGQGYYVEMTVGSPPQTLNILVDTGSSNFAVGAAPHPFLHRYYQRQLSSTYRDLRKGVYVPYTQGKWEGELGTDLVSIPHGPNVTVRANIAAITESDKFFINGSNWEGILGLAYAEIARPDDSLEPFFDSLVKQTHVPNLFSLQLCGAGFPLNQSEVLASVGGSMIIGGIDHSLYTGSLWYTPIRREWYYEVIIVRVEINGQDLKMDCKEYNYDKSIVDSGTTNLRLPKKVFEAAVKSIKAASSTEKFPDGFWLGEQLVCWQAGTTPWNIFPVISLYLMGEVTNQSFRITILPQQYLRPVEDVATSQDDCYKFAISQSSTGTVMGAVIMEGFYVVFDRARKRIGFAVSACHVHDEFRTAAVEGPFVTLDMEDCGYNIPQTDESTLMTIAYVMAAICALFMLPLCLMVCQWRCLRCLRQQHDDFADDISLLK

Row | SMILES | IC50 [1] | melting point | other results
1 | Nc1ccc(OCc2ccccc2)cc1/C=C/C(=O)CC(=O)/C=C/c1ccc(O)cc1 [CU489, (1E,6E)-1-(2-amino-5-benzyloxyphenyl)-7-(4-hydroxyphenyl)hepta-1,6-diene-3,5-dione] | 5.6 µM | 175 to 179 °C | –
2 | O=C(/C=C/c1ccc(O)cc1)CC(=O)/C=C/c1cc(O)ccc1Br [CU532, (1E,6E)-1-(2-bromo-5-hydroxyphenyl)-7-(4-hydroxyphenyl)hepta-1,6-diene-3,5-dione] | – | 182 to 186 °C | amount of Aβ-42 in culture medium ([2]; at 0.3 μM): significantly decreased; amount of Aβ-40 in culture medium ([2]; at 1 μM): significantly decreased
3 | COc1ccc([N+](=O)[O-])c(/C=C/C(=O)CC(=O)/C=C/c2ccc(O)cc2)c1 [CU481, (1E,6E)-1-(4-hydroxyphenyl)-7-(5-methoxy-2-nitrophenyl)hepta-1,6-diene-3,5-dione] | 1.2 µM | 151 to 155 °C | –
4 | COc1cc(/C=C/C(=O)CC(=O)/C=C/c2ccc(O)c(OC)c2)ccc1O [curcumin, reference compound] | – | – | inhibitory effect on Aβ production [2]: no inhibitory effect
5 | O=C(/C=C/c1ccc(O)cc1)CC(=O)/C=C/c1cc(OCc2ccccc2)ccc1[N+](=O)[O-] [CU475, (1E,6E)-1-(5-benzyloxy-2-nitrophenyl)-7-(4-hydroxyphenyl)hepta-1,6-diene-3,5-dione] | 0.74 µM | 168 to 172 °C | –
6 | O=C(/C=C/c1ccc(O)cc1)CC(=O)/C=C/c1cc(O)ccc1[N+](=O)[O-] [CU131, (1E,6E)-1-(5-hydroxy-2-nitrophenyl)-7-(4-hydroxyphenyl)hepta-1,6-diene-3,5-dione] | 0.91 µM | 187 to 194 °C | –
7 | COc1cc(/C=C/C(=O)CC(=O)/C=C/c2ccc(O)cc2)ccc1[N+](=O)[O-] [CU050, (1E,6E)-1-(4-hydroxyphenyl)-7-(3-methoxy-4-nitrophenyl)hepta-1,6-diene-3,5-dione] | 16 µM | 190 to 192 °C | –
8 | O=C(/C=C/c1cc(O)ccc1Br)CC(=O)CCc1ccc(O)cc1 [CU549, (E)-1-(2-bromo-5-hydroxyphenyl)-7-(4-hydroxyphenyl)hept-1-ene-3,5-dione] | – | 161 to 165 °C | –
9 | O=C(/C=C/c1ccc(O)cc1)CC(=O)/C=C/c1ccccc1-c1cnnn1Cc1ccccc1 [CU645, (1E,6E)-1-[2-(1-benzyl-1H-1,2,3-triazol-5-yl)phenyl]-7-(4-hydroxyphenyl)hepta-1,6-diene-3,5-dione] | – | 205 to 215 °C | –
10 | O=C(/C=C/c1ccc(O)cc1)CC(=O)/C=C/c1ccccc1-n1cncn1 [CU623, (1E,6E)-1-[2-(1H-1,2,4-triazol-1-yl)phenyl]-7-(4-hydroxyphenyl)hepta-1,6-diene-3,5-dione] | – | 186 to 192 °C | –
11 | O=C(/C=C/c1ccc(O)cc1)CC(=O)/C=C/c1cc(C(F)(F)F)ccc1F [CU473, (1E,6E)-1-(2-fluoro-5-trifluoromethylphenyl)-7-(4-hydroxyphenyl)hepta-1,6-diene-3,5-dione] | – | 168 to 174 °C | –
12 | O=C(/C=C/c1ccc(O)cc1)CC(=O)/C=C/c1cc(O)ccc1F [CU621, (1E,6E)-1-(2-fluoro-5-hydroxyphenyl)-7-(4-hydroxyphenyl)hepta-1,6-diene-3,5-dione] | – | 205 to 209 °C | –
13 | CN(C)c1ccc(/C=C/C(=O)CC(=O)/C=C/c2cc(O)ccc2Br)c(Cl)c1 [CU609, (1E,6E)-1-(2-bromo-5-hydroxyphenyl)-7-(2-chloro-4-dimethylaminophenyl)hepta-1,6-diene-3,5-dione] | – | 209 to 214 °C | –
14 | O=C(/C=C/c1ccc(O)cc1)CC(=O)/C=C/c1ccc(Br)cc1F [CU471, (1E,6E)-1-(4-bromo-2-fluorophenyl)-7-(4-hydroxyphenyl)hepta-1,6-diene-3,5-dione] | – | 223 to 232 °C | –
15 | COc1cc(O)ccc1/C=C/C(=O)CC(=O)/C=C/c1ccc(N(C)C)cc1Cl [CU581, (1E,6E)-1-(2-chloro-4-dimethylaminophenyl)-7-(4-hydroxy-2-methoxyphenyl)hepta-1,6-diene-3,5-dione] | – | 187 to 192 °C | –
16 | Nc1ccc(O)cc1/C=C/C(=O)CC(=O)/C=C/c1ccc(O)cc1 [CU488, (1E,6E)-1-(2-amino-5-hydroxyphenyl)-7-(4-hydroxyphenyl)hepta-1,6-diene-3,5-dione] | 7.3 µM | 186 to 192 °C | –
17 | COc1cc(/C=C/C(=O)CC(=O)/C=C/c2cc(O)ccc2[N+](=O)[O-])ccc1O [CU132, (1E,6E)-1-(4-hydroxy-3-methoxyphenyl)-7-(5-hydroxy-2-nitrophenyl)hepta-1,6-diene-3,5-dione] | – | 147 to 152 °C | –
